US20090093473A1, “Spiro-benzimidazoles as inhibitors of gastric acid secretion” (priority 2005, published 2009)

Columns and labels:
[1] = test system: pentagastrin-stimulated acid secretion of the perfused rat stomach; test: Secretion-inhibiting action on the perfused rat stomach (pentagastrin-stimulated acid secretion); format: in vivo; conditions: intraduodenal, anesthetized CD rat, dose 1 μmol/kg i.d.
Description: Testing of the Secretion-Inhibiting Action on the Perfused Rat Stomach
In Table A which follows, the influence of the compounds of the formula 1 according to the invention on the pentagastrin-stimulated acid secretion of the perfused rat stomach after intraduodenal administration in vivo is shown.
The abdomen of anesthetized rats (CD rat, female, 200-250 g; 1.5 g/kg i.m. urethane) was opened after tracheotomy by a median upper abdominal incision and a PVC catheter was fixed transorally in the esophagus and another via the pylorus such that the ends of the tubes just projected into the gastric lumen. The catheter leading from the pylorus led outward into the right abdominal wall through a side opening.
After thorough rinsing (about 50-100 ml), warm (37° C.) physiological NaCl solution was conbinuously passed through the stomach (0.5 ml/min, pH 6.8-6.9; Braun-Unita I). The pH (pH meter 632, glass electrode EA 147; φ=5 mm, Metrohm) and, by titration with a freshly prepared 0.01N NaOH solution to pH 7 (Dosimat 665 Metrohm), the secreted HCl were determined in the effluent in each case collected at an interval of 15 minutes.
The gastric secretion was stimulated by continuous infusion of 1 μg/kg (=1.65 mllh) of i.v. pentagastrin (left femoral vein) about 30 min after the end of the operation (i.e. after determination of 2 preliminary fractions). The substances to be tested were administered intraduodenally in a 2.5 ml/kg liquid volume 60 min after the start of the continuous pentagastrin infusion. The body temperature of the animals was kept at a constant 37.8-38° C. by infrared irradiation and heat pads (automatic, stepless control by means of a rectal temperature sensor).

Row | Compound | melting point [°C] | inhibition in vivo at 1 µmol/kg [1] [%]
1 | COCCCNC(=O)c1cc2c(nc(C)n2C)c2c1CCC1(Cc3ccccc3C1)N2 [Example 27, N-(3-methoxypropyl)-2,3-dimethyl-1′,3,3′,6,7,9-hexahydrospiro[imidazo[4,5-h]quinoline-8,2′-indene]-5-carboxamide] | 188 to 189 | > 80
2 | Cc1nc2c3c(c(C(=O)N4CCOCC4)cc2n1C)CCC1(Cc2ccccc2C1)N3 [Example 25, 2,3-dimethyl-5-(morpholin-4-ylcarbonyl)-1′,3,3′,6,7,9-hexahydrospiro[imidazo[4,5-h]-quinoline-8,2′-indene]] | 284 to 285 | > 80
3 | COCCN(C)C(=O)c1cc2c(nc(C)n2C)c2c1CCC1(Cc3ccccc3C1)N2 [Example 21, N-(2-methoxyethyl)-N,2,3-trimethyl-1′,3,3′,6,7,9-hexahydrospiro[imidazo[4,5-h]quinoline-8,2′-indene]-5-carboxamide] | 160 to 161 | > 80
4 | Cc1nc2c3c(c(C(=O)NC4CC4)cc2n1C)CCC1(Cc2ccccc2C1)N3 [Example 24, N-cyclopropyl-2,3-dimethyl-1′,3,3′,6,7,9-hexahydrospiro[imidazo[4,5-h]quinoline-8,2′-indene]-5-carboxamide] | 247 to 248 | > 80
